Target: T1, sweet taste receptor (human T1R2 and T1R3 subunits, mouse Gα15) (Homo sapiens, UniProt Q7RTX0+Q8TE23, C757R/I191V/I486V/R317G)
T1 construct: expressed in transfected cells; host or cells: HEK293T (ATCC CRL-11268)
T1 sequence (Q8TE23 20-839 I191V/R317G/I486V): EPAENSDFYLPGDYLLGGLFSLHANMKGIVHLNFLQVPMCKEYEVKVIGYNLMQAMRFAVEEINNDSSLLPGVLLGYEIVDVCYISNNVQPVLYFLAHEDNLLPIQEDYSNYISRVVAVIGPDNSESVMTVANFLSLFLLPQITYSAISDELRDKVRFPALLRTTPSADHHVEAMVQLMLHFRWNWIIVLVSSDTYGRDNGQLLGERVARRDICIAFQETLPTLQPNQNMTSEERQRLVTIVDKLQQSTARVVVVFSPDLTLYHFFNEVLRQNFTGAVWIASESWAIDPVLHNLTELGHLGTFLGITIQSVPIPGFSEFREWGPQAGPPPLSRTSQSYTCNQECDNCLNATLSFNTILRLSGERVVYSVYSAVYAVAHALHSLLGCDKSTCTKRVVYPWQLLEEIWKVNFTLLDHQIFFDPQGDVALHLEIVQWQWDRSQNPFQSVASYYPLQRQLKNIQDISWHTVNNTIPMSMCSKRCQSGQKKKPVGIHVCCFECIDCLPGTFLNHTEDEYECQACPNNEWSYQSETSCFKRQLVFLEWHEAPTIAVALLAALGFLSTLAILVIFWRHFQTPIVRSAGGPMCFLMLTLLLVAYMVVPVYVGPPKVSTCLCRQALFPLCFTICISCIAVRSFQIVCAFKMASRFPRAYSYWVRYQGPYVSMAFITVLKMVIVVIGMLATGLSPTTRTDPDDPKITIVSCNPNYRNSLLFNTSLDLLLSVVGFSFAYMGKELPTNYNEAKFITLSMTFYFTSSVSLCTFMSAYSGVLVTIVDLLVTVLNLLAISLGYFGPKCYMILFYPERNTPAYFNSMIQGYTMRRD
T1 sequence (Q7RTX0 21-852 C757R): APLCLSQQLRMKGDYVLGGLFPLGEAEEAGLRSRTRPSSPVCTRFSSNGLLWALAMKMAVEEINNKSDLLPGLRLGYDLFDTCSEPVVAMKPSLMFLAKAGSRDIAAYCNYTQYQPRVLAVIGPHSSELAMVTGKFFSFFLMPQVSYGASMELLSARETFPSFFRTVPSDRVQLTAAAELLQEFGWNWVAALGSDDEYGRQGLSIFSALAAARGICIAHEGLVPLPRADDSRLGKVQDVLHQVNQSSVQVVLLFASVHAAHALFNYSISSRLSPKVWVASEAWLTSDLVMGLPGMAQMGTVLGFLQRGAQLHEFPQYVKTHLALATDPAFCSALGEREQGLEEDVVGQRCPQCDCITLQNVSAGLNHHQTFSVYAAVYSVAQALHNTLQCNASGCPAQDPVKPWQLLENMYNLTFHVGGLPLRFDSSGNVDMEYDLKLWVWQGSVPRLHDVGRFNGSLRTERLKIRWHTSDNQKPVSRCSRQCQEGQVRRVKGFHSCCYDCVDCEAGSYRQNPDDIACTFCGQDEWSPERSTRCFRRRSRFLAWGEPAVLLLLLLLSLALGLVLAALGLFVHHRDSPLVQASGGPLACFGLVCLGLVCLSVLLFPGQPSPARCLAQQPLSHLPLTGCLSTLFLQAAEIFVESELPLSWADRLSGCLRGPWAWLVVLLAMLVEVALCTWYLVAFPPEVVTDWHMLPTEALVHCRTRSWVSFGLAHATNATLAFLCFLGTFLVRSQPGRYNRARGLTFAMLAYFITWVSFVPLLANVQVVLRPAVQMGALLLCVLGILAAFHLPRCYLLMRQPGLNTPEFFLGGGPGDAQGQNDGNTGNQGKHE
Assay: sweet taste receptor-expressing cell-based assay (calcium flux)
Conditions: natural, high intensity and artificial sweeteners; FIGS. 23 and 24
Excerpt: FIG. 24 (A-C) is series of line graphs representing the data obtained in various dose response experiments using sweet taste receptor agonists in a sweet taste receptor-expressing cell-based assay (using cells of this invention). (A) The responses of a sweet taste receptor-expressing cell line to natural caloric sweeteners were plotted as a function of the agonist concentration. (B) Dose response curves of common artificial sweeteners in a sweet taste receptor-expressing cell-based assay. (C) Dose response curves of natural high-intensity sweeteners in a sweet taste receptor-expressing cell-based assay.
FIG. 25 is a series of representative response traces generated after performing a sweet taste receptor-expressing cell-based assay using cells of this invention.
To identify a taste receptor modulator (e.g., umami taste receptor modulator or sweet taste receptor modulator), one exposes a cell or cell line of the invention to a test compound under conditions in which the taste receptor (e.g., umami taste receptor or sweet taste receptor) would be expected to be functional and then detects a statistically significant change (e.g., p<0.05) in taste receptor activity (e.g., umami taste receptor activity or sweet taste receptor activity) compared to a suitable control, e.g., cells that are not exposed to the test compound. Positive and/or negative controls using known agonists or antagonists and/or cells expressing different combinations of taste receptor subunits (e.g., umami taste receptor subunits or sweet taste receptor subunits) (and optionally a G protein) may also be used. In some embodiments, the taste receptor activity (e.g., umami taste receptor activity or sweet taste receptor activity) to be detected and/or measured is calcium release from the endoplasmic reticulum as a result of the down stream signaling events following taste receptor activation (e.g., umami taste receptor activation or sweet taste receptor activation). One of ordinary skill in the art would understand that various assay parameters may be optimized, e.g., signal to noise ratio.
See, e.g., FIGS. 23 and 24.

## O=C(CO)[C@@H](O)[C@H](O)[C@H](O)CO [fructose]
  response of sweet taste receptor cells and cell lines to known classes of sweet compounds: respond
